PubChem BioAssay (NCI)
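How tested: cells in 96-well plates exposed to compound for 48 hours at five concentrations. Definition used: TGI = concentration required for complete inhibition of growth.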

Tests used:
Experiment in all cases: DTP human tumour cell line panel, 48 h
DU-145 prostate = system: DU-145 prostate
CCRF-CEM leukemia = system: CCRF-CEM leukemia
MALME-3M melanoma = system: MALME-3M melanoma
NCI-H522 lung = system: NCI-H522 lung
U251 CNS = system: U251 CNS
SNB-75 CNS = system: SNB-75 CNS
UACC-257 melanoma = system: UACC-257 melanoma
TK-10 renal = system: TK-10 renal
MCF7 breast = system: MCF7 breast
T-47D breast = system: T-47D breast
SNB-19 CNS = system: SNB-19 CNS
IGROV1 ovarian = system: IGROV1 ovarian
SK-MEL-5 melanoma = system: SK-MEL-5 melanoma
SW-620 colon = system: SW-620 colon
NCI-H460 lung = system: NCI-H460 lung
SK-MEL-2 melanoma = system: SK-MEL-2 melanoma
KM12 colon = system: KM12 colon
UO-31 renal = system: UO-31 renal
SF-268 CNS = system: SF-268 CNS
SR leukemia = system: SR leukemia
BT-549 breast = system: BT-549 breast
COLO 205 colon = system: COLO 205 colon
SF-539 CNS = system: SF-539 CNS
MDA-MB-435 = system: MDA-MB-435
SF-295 CNS = system: SF-295 CNS
CAKI-1 renal = system: CAKI-1 renal
RXF 393 renal = system: RXF 393 renal
HL-60(TB) leukemia = system: HL-60(TB) leukemia
A498 renal = system: A498 renal
NCI/ADR-RES ovarian = system: NCI/ADR-RES ovarian
SN12C renal = system: SN12C renal
M14 melanoma = system: M14 melanoma
EKVX NSCLC = system: EKVX NSCLC
LOX IMVI melanoma = system: LOX IMVI melanoma
OVCAR-8 ovarian = system: OVCAR-8 ovarian
OVCAR-5 ovarian = system: OVCAR-5 ovarian
HS 578T breast = system: HS 578T breast
HOP-62 NSCLC = system: HOP-62 NSCLC
MDA-MB-231 breast = system: MDA-MB-231 breast
A549 NSCLC = system: A549 NSCLC
UACC-62 melanoma = system: UACC-62 melanoma
HCT-116 colon = system: HCT-116 colon
SK-OV-3 ovarian = system: SK-OV-3 ovarian
HCT-15 colon = system: HCT-15 colon
OVCAR-3 ovarian = system: OVCAR-3 ovarian
ACHN renal = system: ACHN renal
PC-3 prostate = system: PC-3 prostate
K-562 leukemia = system: K-562 leukemia
SK-MEL-28 melanoma = system: SK-MEL-28 melanoma
NCI-H23 lung = system: NCI-H23 lung
HT29 colon = system: HT29 colon
MDA-N = system: MDA-N
HCC-2998 colon = system: HCC-2998 colon
RPMI-8226 leukemia = system: RPMI-8226 leukemia
786-0 renal = system: 786-0 renal
OVCAR-4 ovarian = system: OVCAR-4 ovarian
NCI-H226 lung = system: NCI-H226 lung
MOLT-4 leukemia = system: MOLT-4 leukemia
HOP-92 NSCLC = system: HOP-92 NSCLC

Measured: TGI

COc1ccc(Oc2nc(C#CC(C)(C)O)nc(Oc3ccc(OC)cc3)n2)cc1
27.8 µM: SK-MEL-5 melanoma
28.4 µM: A549 NSCLC
41 µM: SNB-19 CNS
31.1 µM: BT-549 breast
34.6 µM: MALME-3M melanoma
31.2 µM: SF-295 CNS
17 µM: MDA-MB-435
36 µM: SK-OV-3 ovarian
15.6 µM: U251 CNS
9.36 µM: NCI-H522 lung
16.9 µM: COLO 205 colon
4.24 µM: M14 melanoma
> 100 µM: T-47D breast | HCT-116 colon | K-562 leukemia
82.7 µM: HS 578T breast
46.8 µM: NCI/ADR-RES ovarian
22.8 µM: SK-MEL-2 melanoma
31.6 µM: A498 renal
3.47 µM: SW-620 colon
9.93 µM: MDA-MB-231 breast
2.85 µM: RXF 393 renal
10.8 µM: HT29 colon
30.7 µM: EKVX NSCLC
16.6 µM: OVCAR-5 ovarian
21.8 µM: NCI-H23 lung
22.5 µM: SF-539 CNS
3.52 µM: HL-60(TB) leukemia
12.5 µM: CAKI-1 renal
13.7 µM: OVCAR-8 ovarian
7.16 µM: DU-145 prostate
18.9 µM: IGROV1 ovarian | SK-MEL-28 melanoma
29.2 µM: KM12 colon
4.58 µM: OVCAR-3 ovarian
3 µM: LOX IMVI melanoma
7.69 µM: PC-3 prostate
2.88 µM: UO-31 renal
3.79 µM: SR leukemia
3.15 µM: MCF7 breast
38.2 µM: UACC-257 melanoma
3.13 µM: ACHN renal
4.36 µM: CCRF-CEM leukemia
31.3 µM: SNB-75 CNS
28.5 µM: SF-268 CNS
21.6 µM: MDA-N
28.1 µM: SN12C renal
62.1 µM: HOP-62 NSCLC
25.5 µM: TK-10 renal
25 µM: UACC-62 melanoma
37.3 µM: NCI-H460 lung
2.95 µM: HCT-15 colon

Cc1nc(C(N)=S)sc1C(=O)C/C(=N/N)C(=O)Nc1ccc(Cl)cc1
> 100 µM: MALME-3M melanoma | NCI-H522 lung | U251 CNS | SNB-75 CNS | UACC-257 melanoma | TK-10 renal | HCC-2998 colon | MCF7 breast | T-47D breast | SNB-19 CNS | IGROV1 ovarian | SK-MEL-5 melanoma | SW-620 colon | NCI-H460 lung | SK-MEL-2 melanoma | KM12 colon | UO-31 renal | RPMI-8226 leukemia | SF-268 CNS | SR leukemia | BT-549 breast | 786-0 renal | SF-539 CNS | MDA-MB-435 | SF-295 CNS | OVCAR-4 ovarian | CAKI-1 renal | RXF 393 renal | NCI-H226 lung | NCI/ADR-RES ovarian | SN12C renal | M14 melanoma | EKVX NSCLC | LOX IMVI melanoma | OVCAR-8 ovarian | OVCAR-5 ovarian | HS 578T breast | HOP-62 NSCLC | MDA-MB-231 breast | A549 NSCLC | UACC-62 melanoma | MOLT-4 leukemia | HCT-116 colon | SK-OV-3 ovarian | OVCAR-3 ovarian | ACHN renal | PC-3 prostate | K-562 leukemia | SK-MEL-28 melanoma | NCI-H23 lung | HT29 colon | MDA-N

O=[N+]([O-])c1ccc(Cl)cc1N/N=C/c1cccc2cccnc12
> 100 µM: DU-145 prostate | CCRF-CEM leukemia | NCI-H522 lung | U251 CNS | SNB-75 CNS | UACC-257 melanoma | TK-10 renal | HCC-2998 colon | MCF7 breast | T-47D breast | SNB-19 CNS | IGROV1 ovarian | SK-MEL-5 melanoma | SW-620 colon | NCI-H460 lung | KM12 colon | UO-31 renal | RPMI-8226 leukemia | SF-268 CNS | BT-549 breast | 786-0 renal | COLO 205 colon | SF-539 CNS | MDA-MB-435 | SF-295 CNS | OVCAR-4 ovarian | CAKI-1 renal | RXF 393 renal | HL-60(TB) leukemia | NCI/ADR-RES ovarian | SN12C renal | M14 melanoma | EKVX NSCLC | OVCAR-8 ovarian | HS 578T breast | HOP-62 NSCLC | MDA-MB-231 breast | A549 NSCLC | UACC-62 melanoma | MOLT-4 leukemia | HCT-116 colon | SK-OV-3 ovarian | HCT-15 colon | OVCAR-3 ovarian | ACHN renal | PC-3 prostate | K-562 leukemia | SK-MEL-28 melanoma | NCI-H23 lung | HT29 colon | MDA-N
38 µM: SR leukemia

O=C(N/N=C\c1ccccc1)Nc1cccc2ccccc12
51.5 µM: SK-MEL-28 melanoma
48.2 µM: T-47D breast
45.9 µM: SN12C renal
88.9 µM: A498 renal
37.2 µM: HOP-62 NSCLC
24.4 µM: SK-MEL-5 melanoma
30.1 µM: 786-0 renal
83.6 µM: NCI-H226 lung
86.5 µM: PC-3 prostate
66.7 µM: HS 578T breast
77.1 µM: SF-295 CNS
69.9 µM: HT29 colon
49.1 µM: M14 melanoma
39 µM: ACHN renal
> 100 µM: DU-145 prostate | CCRF-CEM leukemia | MALME-3M melanoma | NCI-H522 lung | U251 CNS | SNB-75 CNS | UACC-257 melanoma | TK-10 renal | HCC-2998 colon | SNB-19 CNS | IGROV1 ovarian | SW-620 colon | NCI-H460 lung | KM12 colon | UO-31 renal | RPMI-8226 leukemia | SF-268 CNS | SR leukemia | COLO 205 colon | SF-539 CNS | MDA-MB-435 | OVCAR-4 ovarian | CAKI-1 renal | RXF 393 renal | HL-60(TB) leukemia | NCI/ADR-RES ovarian | EKVX NSCLC | LOX IMVI melanoma | OVCAR-8 ovarian | OVCAR-5 ovarian | MDA-MB-231 breast | HOP-92 NSCLC | A549 NSCLC | UACC-62 melanoma | MOLT-4 leukemia | HCT-116 colon | HCT-15 colon | OVCAR-3 ovarian | K-562 leukemia | NCI-H23 lung | MDA-N
95.3 µM: SK-MEL-2 melanoma
98.3 µM: BT-549 breast
